c1ccc(-n2c3ccccc3c3ccccc32)cc1
solubility (mole fraction)
Details | 278.15 K | 283.15 K | 288.15 K | 293.15 K | 298.15 K | 303.15 K | 308.15 K | 313.15 K
in 1,4-dioxane | – | – | 0.124 | 0.213 | 0.292 | 0.417 | 0.514 | 0.717
in THF | 0.249 | 0.274 | 0.309 | 0.346 | 0.386 | 0.439 | 0.497 | 0.562
in acetonitrile | 0.00383 | 0.00413 | 0.00487 | 0.00582 | 0.00624 | 0.00735 | 0.00826 | 0.0102
in chloroform | 0.237 | 0.262 | 0.322 | 0.399 | 0.461 | 0.555 | 0.651 | 0.753
in cyclohexane | – | 0.034 | 0.0421 | 0.0523 | 0.0691 | 0.0815 | 0.101 | 0.132
in dichloromethane | 0.223 | 0.246 | 0.311 | 0.385 | 0.453 | 0.548 | 0.644 | –
in ethanol | 0.00099 | 0.00167 | 0.00218 | 0.00271 | 0.00334 | 0.0042 | 0.00574 | 0.007
in isopropanol | 0.001 | 0.00131 | 0.00215 | 0.00244 | 0.00303 | 0.004 | 0.00458 | 0.00591
in methanol | 6.96e-05 | 0.00011 | 0.000178 | 0.000208 | 0.000251 | 0.000296 | 0.000427 | 0.00055
in n-butanol | 0.00207 | 0.00219 | 0.00266 | 0.00333 | 0.00403 | 0.00468 | 0.00691 | 0.00919
in n-hexane | 0.0355 | 0.0378 | 0.0431 | 0.0494 | 0.0552 | 0.0624 | 0.0703 | 0.078
in n-propanol | 0.00298 | 0.00323 | 0.00412 | 0.00517 | 0.0061 | 0.00749 | 0.00936 | 0.0116
